In patent publication US3996231A, “1-Quinolinyl-pyrazolidine derivatives” (Choay S.A., priority 1973, dated 1976):
Read-outs that look alike come from different tables or passages of the source.

Experiments:
Experimental pleurisy = Experimental pleurisy in the rat (terebenthine essence); format: in vivo, Wistar rats; conditions: 6 hours
Description: The injection of terebenthine essence (0.1 ml) into the bottom of the diaphragmatic sack of the rat causes in the hours which follow a vascular parietal reaction which leads to the formation of an inflammatory type pleurisy.
The average volume of the pleural exudate (taken up after opening the thoracic cage of the previously sacrificed animals) increases gradually in control animals to reach 6 to 7 ml towards the sixth hour, this volume remaining constant to the forty-eighth hour. The exudate is accompanied by the diapedesis of the formed elements of the blood and by the increase in the mobile cells of the conjunctive tissue. Five days after the injection of the irritant agent, the cellular phase gives place to a tissular reaction which leads to the building of dense granulation tissue and to the production of adhesions between the lungs and the thoracic wall.
The action of an anti-inflammatory substance is manifested by a reduction in the volume of the pleural exudate measured for example 6 hours after the injection of the irritant agent and by a reduction in the intensity of the later tissular reaction.
Experiments in Wistar rats of 200 g divided into batches in the following manner were carried out:
1 control batch of 15 animals
batch of 60 animals (batch 3) also divided into subgroups, each of them comprising 20 animals which have been treated with the doses indicated in Table V
6 batches of 15 animals, respectively treated with anti-inflammatory substances for comparison identified above.
The substances to be tested were administered by mouth 30 minutes before the injection of the irritant substance. The doses of these known anti-inflammatories correspond to their normal experimental doses. The results indicated in the Table V correspond to the reductions expressed as % of the average volumes of pleural exudate taken up 6 hours after the irritant injection and observed in the treated animals relative to the average volumes measured in the controls.

[1] = system: Arthritis by Freund adjuvant; test: Arthritis by Freund adjuvant; format: in vivo, rat; conditions: 50 mg/kg per day
Description: The injection of 0.5 ml of Freund adjuvant (product sold by the Difco Company) into the plantar pad of the rear foot of a rat of 90 days, causes a chronic polyarthritis.
This injection causes an inflammation first localised in the injected foot, then generalised. The blocking of the articulations appears between the 10th and the 20th days.
In a series of rats thus treated there are selected, 10 days after the injection of the Freund adjuvant, 50 rats having complete blockage of the articulations.

[2] = system: transmission of painful stimuli; test: Caroll and Lim test; format: in vivo, rat; conditions: 50 mg/kg by mouth
From the text: This test (Arch. Int. Pharmacodyn., 1960, CXXV, 383-403) enables the study of the effect of analgesics on the transmission of painful stimuli, by means of electrodes placed on the tail of the rat and connected to a "stimulator" constituted by a source adapted to supply an alternating current of 60 Hz frequency at increasing voltages. The three voltages (thresholds S1, S2, S3) at which there are successively obtained:
Threshold S1 : characteristic retraction movement of the tail
Threshold S3 : a cry which continues after interrupting the stimulation.
The analgesic substances administered to a group of 15 rats have the effect of increasing the values of these thresholds. This is what have been observed with the substance according to the invention, administered by mouth at the dose of 50 mg/kg. The average increases, expressed as % with respect to the average corresponding thresholds observed in 15 animals of a control series, are indicated in Table VIII below.

[3] = Acute oral toxicity / LD50 in the mouse; conditions: in vivo, po
Description: (§1) LD50 were determined in the mouse and the rat. The substance was administered to the animals by the oral route in a single dose. The behaviour of the animals was observed during the six days which followed. The statistical calculations were done by the method of Miller L. C. Tainter M. L. (Proc. Soc. Exp. Biol. Med., 1944 57 261/264/264).

mouse = test: Acute oral toxicity / LD50 in the mouse; conditions: for Mortality: in vivo, po
Description: as §1

in vivo = conditions: rat, in vivo, po
Description: as §1

rat = test: in vivo
Description: as §1

all the animals = test: AD50 (active dose 50) and therapeutic index as shown by the above-mentioned tests; format: in vivo; conditions: for ED50: read-out: AD50 (active dose 50)
Solubility = format: physicochemical
[4] = comparison batch, 50 mg/kg by mouth
[5] = comparison batch, 25 mg/kg by mouth
[6] = relative to the values of the invention's substance

Molecule: Clofezone [reference compound]
- Reduction of average volume of pleural exudate (Experimental pleurisy; [4]): -37%

Molecule: O=C(O)c1ccccc1Nc1cccc(C(F)(F)F)c1 [Ac. flufenamic, Flufenamic acid, reference compound]
- Reduction of average volume of pleural exudate (Experimental pleurisy; [5]): -32%

Molecule: O=C(O)c1cccnc1Nc1cccc(C(F)(F)F)c1 [Ac. niflumic, Niflumic acid, reference compound]
- Reduction of average volume of pleural exudate (Experimental pleurisy; [4]): -30%

Molecule: Cc1cccc(Nc2ccccc2C(=O)O)c1C [Ac. Mefenamic, Mefanamic acid, reference compound]
- Reduction of average volume of pleural exudate (Experimental pleurisy; [5]): -30%

Molecule: CCCCC1C(=O)NN(c2ccnc3cc(Cl)ccc23)C1=O (stereo not drawn) [1-(7'-chloro 4'-quinolinyl) 3,5-dioxo 4-n-butyl pyrazolidine]
- Reduction of average volume of pleural exudate (Experimental pleurisy; Batch No. 1, 12.5 mg/kg by mouth): -24%
- Reduction of average volume of pleural exudate (Experimental pleurisy; Batch No. 1, 25 mg/kg by mouth): -35%
- Reduction of average volume of pleural exudate (Experimental pleurisy; Batch No. 1, 50 mg/kg by mouth): -45%
- Reduction of average volume of pleural exudate (Experimental pleurisy; Batch No. 2, 12.5 mg/kg by mouth): -23%
- Reduction of average volume of pleural exudate (Experimental pleurisy; Batch No. 2, 25 mg/kg by mouth): -38%
- Reduction of average volume of pleural exudate (Experimental pleurisy; Batch No. 2, 50 mg/kg by mouth): -55%
- Reduction of average volume of pleural exudate (Experimental pleurisy; Batch No. 3, 12.5 mg/kg by mouth): -18%
- Reduction of average volume of pleural exudate (Experimental pleurisy; Batch No. 3, 25 mg/kg by mouth): -28%
- Reduction of average volume of pleural exudate (Experimental pleurisy; Batch No. 3, 50 mg/kg by mouth): -45%
- Animals with at least partial deblocking of the articulations ([1]; after 5 days of treatment): at least 25%
- Animals with at least partial deblocking of the articulations ([1]; after 10 days of treatment): ≥ 50%
- Animals with at least partial deblocking of the articulations ([1]; after 15 days of treatment): ≥ 65%
- Average increase of threshold S1 ([2]; 11/2 hour): 0
- Average increase of threshold S1 ([2]; 30 minutes): 0
- Average increase of threshold S1 ([2]; 1 hour): 0
- Average increase of threshold S1 ([2]; 2 hours): 0
- LD50 at 144 h [3]: ~2000 mg/kg
- mortality at 144 h ([3]; 1000 mg/kg): 16%
- mortality at 144 h ([3]; 2000 mg/kg): 50%
- mortality at 144 h ([3]; 4000 mg/kg): 100%
- Mortality (mouse; 200 mg/kg): no death
- Mortality (mouse; 500 mg/kg): no death
- LD50 at 144 h (in vivo): > 4000 mg/kg
- mortality at 144 h (in vivo; 4000 mg/kg): 5%
- Mortality (rat; in vivo, po, 200 mg/kg): no death
- Mortality (rat; in vivo, po, 500 mg/kg): no death
- Mortality (rat; oral single dose, 1 g/kg): no death
- Mortality (rat; oral single dose, 2 g/kg): no death
- ED50 (all the animals; in all the animals, determined under similar conditions): ~50 mg/kg
- therapeutic index (all the animals; in vivo): notably higher than that of phenylbutazone
- solubility in alcohol (Solubility; alcohol): soluble
- solubility in solutions of potassium or of sodium carbonate (Solubility; solutions of potassium or of sodium carbonate): soluble
- solubility in water (Solubility; water): insoluble

Molecule: CCCCC1C(=O)N(c2ccccc2)N(c2ccccc2)C1=O [Phenylbutazone, reference compound]
- Reduction of average volume of pleural exudate (Experimental pleurisy; comparison batch, 100 mg/kg by mouth): -49%
- LD50 (in words) (mouse; [6]): much lower than the above-indicated values
- LD50 (in words) (rat; [6]): much lower than the above-indicated values
- ED50 (all the animals): ~100 mg/kg

Molecule: COc1ccc2c(c1)c(CC(=O)O)c(C)n2C(=O)c1ccc(Cl)cc1 [Indomethacine, reference compound]
- Reduction of average volume of pleural exudate (Experimental pleurisy; comparison batch, 5 mg/kg by mouth): -33%
